# Measurements published in patent US8748480B2, “Methods for treating opioid tolerance” (priority 2005, dated 2014).
# Where two headings read alike, the source gives them in different places. No end group written: not given here.
# Columns and labels:
# [1] = target: T1, Gβγ (protein interaction site of Gβ) (Rattus norvegicus, UniProt P54311); assay: Phage ELISA: small molecules competing with SIGK-phage binding to immobilized biotinylated Gβγ
# T1 construct: made in house; host or cells: Sf9 insect cells (baculovirus), co-expressed with BirA and (His)6-Gαi1
# Protocol: Exemplary compounds of the present invention were initially selected from a computational screen to identify ligands that bind to the novel protein interaction site of Gβ. The computational screen involved using SYBYL molecular modeling software to model the protein interaction site of Gβ as determined in the X-ray structure disclosed herein. The computational docking screen was performed with the National Cancer Institute 1900 compound library wherein the compounds were tested for docking to the protein interaction site of Gβ using FLEXX™ (Tripos, Inc., St. Louis, Mo.) for docking and CSCORE™ (Tripos, Inc.) to evaluate the energetics and fitness of the docked structure. Algorithm-dependent lists of compounds, predicted to interact with the protein interaction site of Gβ and the structural model of the interaction, were generated. Selected compounds were subsequently analyzed in the phage ELISA binding assay disclosed herein to assess whether these compounds could bind to the protein interaction site of Gβ and interfere with protein interactions at this surface.
# Wild-type Gβ1 and Gβ1 mutants were made in the baculovirus vector PDW464 which encodes a biotinylation site at a lysine upstream of the amino terminus of Gβ1 (Goubaeva, et al. (2003) supra). Mutants were generated by overlap extension PCR using standard protocols. The wild-type and mutant Gβ1 constructs consisted of a 20 amino acid biotin acceptor peptide (BAP) sequence fused in-frame with the amino-terminus of rat Gβ1 subunit. When coexpressed with biotin holoenzyme synthetase (BirA) in Sf9 cells, the Gβ1 subunit becomes covalently biotinylated in vivo at the Specific lysine acceptor residue in the BAP.
# Phage ELISA assays used to assess peptide binding to wild-type and mutant b-βγ were performed according to standard methods (Smrcka and Scott (2002) Methods Enzymol. 344:557-76). Briefly, 1 μg streptavidin was immobilized in the well of a […] overnight at 4° C. The wells were blocked with 100 μL of 2% bovine serum albumin (BSA) in Tris-buffered saline (TBS) for 1 hour at 4° C. followed by three washes of 1×TBS/0.5% TWEEN®. […] The wells were washed, followed by the addition of 1×10^6 to 1×10^10 phage particles and incubated at 4° C. for 3 hours. The wells were then washed six times with TBS/0.5% TWEEN® followed by addition of 40 μL of 1:5000 dilution of anti-M13 antibody (Pharmacia, Uppsala, Sweden) and incubated at room temperature for 1 hour. The wells were washed, followed by the addition of 40 μL of (2,2′-Azino-bis(3-ethylbenzthiazoline)-6-sulfonic acid (ABTS) and the colorimetric reaction was monitored at 405 nm. Non-specific binding was subtracted for each reading.
# A phage ELISA assay was used to determine whether small molecules identified in the computational screen could interact with the Gβγ protein interaction surface. […] The screen was based on a reduction in the optical density (OD) of wells containing Gβγ subunits and phage. […] Three background wells contained no βγ subunits.
# As disclosed herein, biotinylated Gβγ subunits were immobilized on the surface of a 96-well plate coated with streptavidin, phage displaying Gβγ-binding peptides were subsequently added and binding in the presence and absence of test compounds detected with an anti-phage antibody.
# [2] = system: fMLP-dependent ERK activation; assay: fMLP-dependent ERK activation; type: cell-based
# [3] = system: differentiated HL-60 neutrophil; assay: Cytosolic Ca2+ in agonist-activated neutrophils (fura-2); type: cell-based
# Protocol: FIG. 4 is a bar graph depicting the peak cytosolic Ca^2+ concentrations for neutrophils activated with fMLP or ATP agonists in the presence or absence of 10 μM NSC119910. fMLP, n=3; ATP, n=2.
# Gβγ-regulated activities of PI3Kγ and PLC-β2/-β3 are important in chemoattractant-induced responses and inflammation. PI3Kγ is involved in the production of TI-IgλL and mice deficient in PI3Kγ, lack neutrophil migration (Li, et al, (2000) Science 287:1046-9). The PLC pathway is involved in down-modulation of chemotaxis and in hyperinflammatory conditions (Li, et al. (2000) supra). Therefore, it was determined whether NSC119910 could inhibit the Gβγ/PLC interaction and block PLC activation.
# Ca^2+ fluxes were measured using two 35 mL cultures of differentiated HL-60 neutrophil cultures (0.2×10^6 cells/mL). Cells were cultured for three days with in DMSO (1.2%), washed in HSS and resuspended in 2 mL HBSS at a concentration of 7×10^6 cells/mL. Addition of DMSO to the growth medium induces differentiation of these cells into morphologically and functionally mature neutrophils (Collins, et al. (1978) Proc. Natl. Acad. Sci. USA 75:2458; Collins, et al., (1979) J. Exp. Med. 149:969). Neutrophils were preloaded with fura-2 (1 μM), a fluorescent Ca^2+-sensitive indicator (Suh, et al., (1996) J. Biol. Chem. 271:32753), for 45 minutes, washed with HBSS and resuspended in 2 mL of indicator-free HBSS. An 140 μL aliquote of cells was added to a total of 2 mL HBSS. Fluorescence ratios were taken by dual excitation at 340 and 380 nm and emission at 510 nm. After a stable baseline was established, either DMSO or NSC119910 was added and incubated for 5 minutes. Subsequently, either fMLP or ATP agonists were added to activate release of Ca^2+ from intracellular stores.
# Mice = assay: 55° C. warm-water tail-flick test, intracerebroventricular injection; type: in vivo; conditions: 100 nmol NSC119910 i.c.v. with morphine
# Protocol: Opioid receptors, μ, Δ, and κ, couple to Gi and Go proteins through α and βγ subunits, and regulate a number of signaling pathways. […] Mice were tested 20 minutes after the injection for an analgesic response in a 55° C. warm-water tail-flick test (Wells, et al. (2001) J. Pharmacol. Exp. Therapeut. 297:597-605).
# PLC β = assay: Phospholipase C-Gβγ interaction, PLC enzymatic activity (FIG. 3); type: biochemical; conditions: in vitro
# Protocol: FIG. 3 is a graph illustrating the inhibition of phospholipase C-Gβγ interactions by NSC119910. Phospholipase enzymatic activity was determined using well-established methods (Ghosh and Smrcka (2003) Meth. Mol. Biol. 237:67-75).
# Gβγ subunits = Gβγ subunits (Rattus norvegicus, UniProt P54311); assay: Gα subunit-Gβγ interaction (FIG. 2); type: binding
# Protocol: FIG. 2 is a graph illustrating that NSC119910 binds to Gβγ and interferes with physiologically relevant protein interactions such as with the Gα subunit.
# (§1) Fluorescein-labeled Gαi1 (Fαi1) was prepared in accordance with standard methods (Sarvazyan, et al. (1998) supra). Assays were used to determine peptide effects on Gα-Gβγ interactions included competition and dissociation assays (Ghosh, et al. (2003) supra). Briefly, for competition-based assays, 100 pM Fαi1 and indicated concentrations of peptides were added to 50 pM b-Gβ1γ2 immobilized on 10^5 beads per mL and incubated at room temperature for 30 minutes to reach equilibrium. The bead-associated fluorescence was then recorded in a BD Biosciences FACSCALIBUR™ flow cytometer. Data was corrected for background fluorescence and fit with a sigmoid dose response curve using Graph Pad Prism 4. To measure dissociation of Fαi1 from b-Gβ1γ2, 100 pM of Fαi1 was incubated with 50 pM immobilized b-Gβ1γ2 at room temperature for 15-20 minutes. The fluorescence of bound Fαi1 subunit was measured, followed by the addition of a 200-fold excess of unlabeled Gαi1 or peptides and the amount of Fαi1 remaining bound to the beads was measured at the indicated times.
# PLC-β2 = assay: Purified PLC-β2 activation by purified βγ (FIG. 6); type: biochemical; conditions: purified PLC-β2 with purified βγ
# Protocol: (§2) FIG. 6 is a bar graph illustrating inhibition of PLC-β2 and PLC-β3 activation in the presence of exemplary compounds of the instant invention.
# (§3) The ability of NSC119910 analogs to selectively modulate activation PLC-β2 and -β3 was analyzed. In this assay, PLC-β2 and PLC-β3 were purified and PLC enzymatic activity was measured in the presence or absence of purified βγ and in the presence or absence of analog.
# PLC-β3 = assay: Purified PLC-β3 activation by purified βγ (FIG. 6); type: biochemical; conditions: purified PLC-β3 with purified βγ
# Protocol: as §2, §3
# [4] = target: T2, Fαi1·b-Gβ1γ2 heterotrimer (Rattus norvegicus, UniProt P54311); assay: Flow cytometry dissociation of Fαi1 from preformed heterotrimer with b-Gβ1γ2; type: binding; conditions: peptide added to preformed Fαi1·b-Gβ1γ2
# T2 construct: made in house; host or cells: Sf9 insect cells (baculovirus) for b-Gβ1γ2
# Protocol: as §1
# PLC β2 = conditions: cited from earlier work
# [5] = system: voltage-gated N-type Ca++ channel; conditions: cited from earlier work
# PI3K = conditions: cited from earlier work
# type I adenylyl cyclase = conditions: cited from earlier work
compound,measurement,setting,value
O=C1c2ccccc2C(=O)c2c(Nc3cc4c5c(ccc6c7ccc8c9c(cc(Nc%10cccc%11c%10C(=O)c%10ccccc%10C%11=O)c(c3c56)c97)-c3ccccc3C8=O)C(=O)c3ccccc3-4)cccc21 [NSC23128],IC50,[1]; read-out: IC50,16 µM
CCc1cc2c(c3ccc(C(=O)CBr)cc13)CCCC2 [NSC30820],IC50,[1]; read-out: IC50,0.1 µM
Nc1c(S(=O)(=O)O)cc(Nc2cccc(S(N)(=O)=O)c2)c2c1C(=O)c1ccccc1C2=O [NSC117079],IC50,[1]; read-out: IC50,43 µM
O=C(O)c1cccc2cccc(-c3c4ccc(=O)c(O)c-4oc4c(O)c(O)ccc34)c12 [NSC119893],fMLP-dependent ERK activation,[2],without interfering
same,Ca2+ mobilization,[3],block
O=C(O)C1CCCCC1c1c2ccc(=O)c(O)c-2oc2c(O)c(O)ccc12 (stereo not shown) [NSC119910],fMLP-dependent ERK activation,[2],without interfering
same,shift to the left in morphine dose-response curve,Mice,11 fold
same,Ca2+ mobilization,[3],block
same,time taken for fluorescence to decline to half-peak values,"[3]; 10 μM compound, fMLP or ATP (FIG. 5)",not substantially affected
same,increase in [Ca2+],"[3]; ATP-stimulated neutrophils, 10 μM compound",not significantly suppressed
same,increase in cytosolic Ca2+,"[3]; fMLP-stimulated neutrophils, 10 μM compound",suppressed
same,"PLC β-Gβγ interaction, enzymatic activity of PLC β",PLC β,inhibited
same,IC50,[1],0.1 µM
same,interactions of Gα subunit with Gβγ subunits,Gβγ subunits,blocked
O=C(O)/C=C/c1c2ccc(=O)c(O)c-2oc2c(O)c(O)ccc12 [NSC119911],PLC-β2 activation,PLC-β2,block PLC-β2 activation more effectively than PLC-β3 activation
same,fMLP-dependent ERK activation,[2],do not interfere
Nc1ccc(-c2ccc(Nc3cc(S(=O)(=O)O)c(N)c4c3C(=O)c3ccccc3C4=O)cc2)c(S(=O)(=O)O)c1 [NSC125910],IC50,[1]; read-out: IC50,68 µM
O=C(O)C1CC2C3(Cl)C(Cl)=C(Cl)C(Cl)C2(CC1c1c2ccc(=O)c(O)c-2oc2c(O)c(O)ccc12)C3(Cl)Cl (stereo not shown) [NSC158110],fMLP-dependent ERK activation,[2],do not interfere
N[C@H]1CCc2cc(O)c(O)c(O)c2-c2ccc(O)c(=O)cc21 [NSC201400],PLC-β3 activation,PLC-β3,selectively potentiated
same,fMLP-dependent ERK activation,[2],do not interfere
same,IC50,[1]; read-out: IC50,0.1 µM
Ic1ccc2c(c1)N(c1ccccc1)c1cc(Nc3ccc4nc5ccc(I)cc5[n+](-c5ccccc5)c4c3)ccc1N2 [NSC402959],IC50,[1]; read-out: IC50,2 µM
C[C@H](NC(=O)[C@H](CS)NC(=O)[C@@H](N)CO)C(=O)N[C@@H](CCCNC(=N)N)C(=O)N[C@@H](Cc1ccccc1)C(=O)N[C@@H](Cc1ccccc1)C(=O)NCC(=O)N[C@H](C(=O)N1CCC[C@H]1C(=O)NCC(=O)N[C@@H](CS)C(=O)N[C@H](C(=O)O)[C@@H](C)O)[C@@H](C)O [SCAR],dissociation of a preformed heterotrimer,[4],could not promote dissociation
CC[C@H](C)[C@H](NC(=O)[C@H](CC(N)=O)NC(=O)[C@H](CC(C)C)NC(=O)[C@H](C)NC(=O)[C@H](C)NC(=O)[C@H](CCCNC(=N)N)NC(=O)[C@@H](NC(=O)[C@@H](N)CO)[C@@H](C)CC)C(=O)N[C@@H](CC(C)C)C(=O)NCC(=O)N[C@@H](Cc1ccc(O)cc1)C(=O)N1CCC[C@H]1C(=O)N[C@@H](CC(=O)O)C(=O)N[C@@H](Cc1ccc(O)cc1)C(=O)N[C@@H](CC(=O)O)C(=O)O [SIRK(Lys4Ala)],dissociation of a preformed heterotrimer,[4],failed to accelerate heterotrimer dissociation
CC[C@H](C)[C@H](NC(=O)[C@H](CC(N)=O)NC(=O)[C@H](CC(C)C)NC(=O)[C@H](C)NC(=O)[C@H](CCCCN)NC(=O)[C@H](CCCNC(=N)N)NC(=O)[C@@H](NC(=O)[C@@H](N)CO)[C@@H](C)CC)C(=O)N[C@@H](CC(C)C)C(=O)NCC(=O)N[C@@H](Cc1ccc(O)cc1)C(=O)N1CCC[C@H]1C(=O)N[C@@H](CC(=O)O)C(=O)N[C@@H](Cc1ccc(O)cc1)C(=O)N[C@@H](CC(=O)O)C(=O)O [SIRK],IC50,PLC β2; read-out: IC50 for inhibition of PLC β2 activation by Gβ1γ2,5 µM
same,Gβ1γ2 regulation of voltage-gated N-type Ca++ channel activity,[5],little or no effect
same,activation of PI3K,PI3K,blocked
same,Gβ1γ2 regulation of type I adenylyl cyclase,type I adenylyl cyclase,little or no effect
same,dissociation of a preformed heterotrimer,[4],promotes dissociation
SIRKALNILAYPDYD [SIRK(Gly10Ala)],change of IC50 relative to wild-type SIRK peptide,PLC β2; inhibition of PLC β2 activation by Gβ1γ2,12 fold
same,dissociation of a preformed heterotrimer,[4],could still accelerate heterotrimer dissociation
